# According to patent publication US20250295734A1, “ANTICOAGULANT PROTEINS AND THEIR USE FOR TREATING DISEASES ASSOCIATED WITH THE ACTIVATION OF NEUTROPHILS” (BIOXODES, priority 2018, published 2025):
# Test system: human washed platelets
# Test: In vitro platelet aggregation assay
# Assay type: cell-based
# Conditions: agent alone (TRAP 20 μM, ADP 20 μM or Ir-CPI 500 μg/100 μL); n=1
# Description: Blood from healthy human donors, who had not taken anti-platelet agents within the 15 days prior to collection, was collected in citrated tubes and centrifuged for 13 min at 200 g. The platelet-rich plasma was collected and centrifuged for 13 min at 900 g in Tyrode buffer (138 mM NaCl, 2.9 mM KCl, 12 mM NaHCO3, 5.5 mM glucose, 1.8 mM CaCl2 and 0.4 mM MgCl2, pH 7.4) containing 0.2% BSA, apyrase 0.02 U/mL and PGI2 500 nM. Washed platelets were resuspended in the Tyrode/BSA 0.2%/apyrase/PGI2 solution and centrifuged at 900 g for 13 min. Platelets were resuspended in a Tyrode/BSA 0.2% solution at a concentration of 3.10^8 platelets/mL. Platelets were kept at 37° C. for 30 min in a solution containing […]. Next, platelets were incubated at 37° C. under agitation for 5 to 10 minutes in an aggregometer APACT 4004 with ADP (adenosine diphosphate), TRAP (Thrombin Receptor-Activating Peptide) and/or Ir-CPI.
# The effect of Ir-CPI on platelet aggregation was assessed in vitro by using isolated human washed platelets (n=1).
smiles,measurement,value
"Nc1ncnc2c1ncn2[C@@H]1O[C@H](COP(=O)(O)OP(=O)(O)O)[C@@H](O)[C@H]1O [ADP, adenosine diphosphate, reference compound]",Aggregation Latency,51.8 s
same,Aggregation Max,6.9%
same,Aggregation Slope,19.4 %/min
